Consider 18 molecules from patent US9688710B2, “Inhibitors of sodium glucose cotransporter 1” (LEXICON PHARMACEUTICALS, INC., priority 2012, dated 2017).

Structures are written as SMILES. pIC50: −log10 of the molar value.

Assay [1] addresses Human sodium/glucose co-transporter type 2 (SGLT2) (Homo sapiens (Human), UniProt P31639). The assay can be described thus: In vitro human SGLT2 inhibition assay (14C-AMG uptake). The assay is classed as cell-based. The conditions noted are these: HEK293 cells expressing human HA-SGLT2, 14C-AMG uptake. The protocol: Human sodium/glucose co-transporter type 2 (SGLT2; accession number P31639; GI:400337) was cloned into pIRESpuro2 vector for mammalian expression (construct: HA-SGLT2-pIRESpuro2).
HEK293 cells were transfected with the human HA-SGLT2-pIRESpuro2 vector and the bulk stable cell line was selected in presence of 0.5 μg/mL of puromycin. Human HA-SGLT2 cells were maintained in DMEM media containing 10% FBS, 1% GPS and 0.5 μg/mL of puromycin.
The HEK293 cells expressing the human HA-SGLT2 were seeded in 384 well plates (30,000 cells/well) in DMEM media containing 10% FBS, 1% GPS and 0.5 μg/mL of puromycin, then incubated overnight at 37 C, 5% CO2. Cells were then washed with uptake buffer (140 mM NaCl, 2 mM KCl, 1 mM CaCl2, 1 mM MgCl2, 10 mM HEPES, 5 mM Tris, 1 mg/mL bovine serum albumin (BSA), pH 7.3). Twenty microliters of uptake buffer with or without testing compounds were added to the cells. Then, 20 microliters of uptake buffer containing ^14C-AMG (100 nCi) were added to the cells. The cell plates were incubated at 37° C., 5% CO2 for 1-2 hours. After washing the cells with uptake buffer, scintillation fluid was added (40 microliters/well) and ^14C-AMG uptake was measured by counting radioactivity using a scintillation coulter (TopCoulter NXT; Packard Instruments).

Assay [2] deals with Human sodium/glucose co-transporter type 1 (SGLT1) (Homo sapiens (Human), UniProt P13866). The assay can be described thus: In vitro human SGLT1 inhibition assay (14C-AMG uptake). The assay is classed as cell-based. Set-up: key to SGLT1 (human SGLT1 IC50): ***: a value less than 0.01 μM; **: a value less than 0.1 μM; *: a value less than 1 μM; —: a value not measured or exceeding μM. The following applies: HEK293 cells expressing human HA-SGLT1, 14C-AMG uptake. The protocol:
Human sodium/glucose co-transporter type 1 (SGLT1; accession number NP_000334; GI: 4507031) was cloned into pIRESpuro2 vector for mammalian expression (construct: HA-SGLT1-pIRESpuro2).
HEK293 cells were transfected with the human HA-SGLT1-pIRESpuro2 vector and the bulk stable cell line was selected in presence of 0.5 μg/mL of puromycin. Human HA-SGLT1 cells were maintained in DMEM media containing 10% FBS, 1% GPS and 0.5 μg/mL of puromycin.
The HEK293 cells expressing the human HA-SGLT1 were seeded in 384 well plates (30,000 cells/well) in DMEM media containing 10% FBS, 1% GPS and 0.5 μg/mL of puromycin, then incubated overnight at 37 C, 5% CO2. Cells were then washed with uptake buffer (140 mM NaCl, 2 mM KCl, 1 mM CaCl2, 1 mM MgCl2, 10 mM HEPES, 5 mM Tris, 1 mg/mL bovine serum albumin (BSA), pH 7.3). Twenty microliters of uptake buffer with or without testing compounds were added to the cells. Then, 20 microliters of uptake buffer containing ^14C-AMG (100 nCi) were also added to cells. The cell plates were incubated at 37° C., 5% CO2 for 1-2 hours. After washing the cells with uptake buffer, scintillation fluid was added (40 microliters/well) and ^14C-AMG uptake was measured by counting radioactivity using a scintillation coulter (TopCoulter NXT; Packard Instruments).

Sequence of Human sodium/glucose co-transporter type 2 (SGLT2) (P31639 whole entry): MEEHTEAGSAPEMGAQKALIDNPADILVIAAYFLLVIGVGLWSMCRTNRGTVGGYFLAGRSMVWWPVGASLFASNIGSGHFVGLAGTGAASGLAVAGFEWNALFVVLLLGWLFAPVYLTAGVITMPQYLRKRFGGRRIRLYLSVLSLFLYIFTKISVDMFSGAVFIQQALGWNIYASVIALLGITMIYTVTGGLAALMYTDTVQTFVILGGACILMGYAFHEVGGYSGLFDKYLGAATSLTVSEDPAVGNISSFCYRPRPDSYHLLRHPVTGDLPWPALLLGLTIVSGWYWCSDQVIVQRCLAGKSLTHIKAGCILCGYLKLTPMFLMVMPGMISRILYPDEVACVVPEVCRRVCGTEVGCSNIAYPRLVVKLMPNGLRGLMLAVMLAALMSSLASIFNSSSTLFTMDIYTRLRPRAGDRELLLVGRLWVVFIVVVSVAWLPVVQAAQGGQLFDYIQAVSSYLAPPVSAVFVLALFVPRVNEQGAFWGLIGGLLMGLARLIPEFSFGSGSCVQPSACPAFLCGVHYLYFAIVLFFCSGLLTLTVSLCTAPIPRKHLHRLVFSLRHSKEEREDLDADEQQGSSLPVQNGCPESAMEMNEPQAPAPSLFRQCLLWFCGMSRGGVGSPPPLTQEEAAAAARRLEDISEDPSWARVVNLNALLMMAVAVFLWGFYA
Sequence of Human sodium/glucose co-transporter type 1 (SGLT1) (P13866 whole entry): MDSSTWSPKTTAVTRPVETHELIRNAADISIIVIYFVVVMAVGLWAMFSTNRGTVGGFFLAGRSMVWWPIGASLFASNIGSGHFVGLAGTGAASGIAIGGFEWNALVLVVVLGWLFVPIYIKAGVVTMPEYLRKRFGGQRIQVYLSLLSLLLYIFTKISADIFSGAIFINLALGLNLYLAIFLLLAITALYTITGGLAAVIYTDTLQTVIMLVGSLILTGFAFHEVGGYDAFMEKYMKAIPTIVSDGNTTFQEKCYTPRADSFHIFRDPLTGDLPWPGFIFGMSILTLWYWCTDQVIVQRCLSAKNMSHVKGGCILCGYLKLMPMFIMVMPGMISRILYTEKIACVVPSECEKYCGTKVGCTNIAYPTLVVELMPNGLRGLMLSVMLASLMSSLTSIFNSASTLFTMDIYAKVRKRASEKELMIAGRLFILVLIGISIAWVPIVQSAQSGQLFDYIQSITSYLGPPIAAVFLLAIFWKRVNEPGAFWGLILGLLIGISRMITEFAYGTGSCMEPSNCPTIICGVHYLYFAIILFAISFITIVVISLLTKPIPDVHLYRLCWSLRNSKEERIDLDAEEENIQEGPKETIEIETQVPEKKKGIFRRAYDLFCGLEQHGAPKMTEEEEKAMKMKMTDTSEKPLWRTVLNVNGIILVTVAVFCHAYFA

As a reminder, the pIC50 is the IC50 on a negative log10 scale, so that one unit is a factor of ten. For the molecule `CS[C@H]1O[C@@H](c2ccc(C)c(Cc3ccc(CCCCNCC(C)(C)C(=O)N4CCN(C)CC4)cc3)c2)[C@H](O)[C@@H](O)[C@@H]1O` [2,2-dimethyl-3-((4-(4-(2-methyl-5-((2S,3R,4R,5S,6R)-3,4,5-trihydroxy-6-(methylthio)tetrahydro-2H-pyran-2-yl)benzyl)phenyl)butyl)amino)-1-(4-methylpiperazin-1-yl)propan-1-one], the pIC50 in assay [1] and in assay [2] was over 8.00 in each case.
Regarding `CS[C@H]1O[C@@H](c2ccc(C)c(Cc3ccc(CCCCNCC(C)(C)C(N)=O)cc3)c2)[C@H](O)[C@@H](O)[C@@H]1O` [2,2-dimethyl-3-((4-(4-(2-methyl-5-((3R,4R,5S,6R)-3,4,5-trihydroxy-6-(methylthio)tetrahydro-2H-pyran-2-yl)benzyl)phenyl)butyl)amino)propanamide], the pIC50 in assay [1] and in assay [2] was over 8.00 each time.
For the molecule `CS[C@H]1O[C@@H](c2ccc(Cl)c(Cc3ccc(OCC(=O)NC(C)(C)C(N)=O)cc3)c2)[C@H](O)[C@@H](O)[C@@H]1O` [2-(2-(4-(2-chloro-5-((2S,3R,4R,5S,6R)-3,4,5-trihydroxy-6-(methylthio)tetrahydro-2H-pyran-2-yl)benzyl)phenoxy)acetamido)-2-methylpropanamide], the pIC50 in assay [1] was over 8.00; in assay [2] it was over 7.00.
Take `CS[C@H]1O[C@@H](c2ccc(Cl)c(Cc3ccc(OCCCNC(=O)NC(C)(C)C(N)=O)cc3)c2)[C@H](O)[C@@H](O)[C@@H]1O` [2-(3-(3-(4-(2-chloro-5-((2S,3R,4R,5S,6R)-3,4,5-trihydroxy-6-(methylthio)tetrahydro-2H-pyran-2-yl)benzyl)phenoxy)propyl)ureido)-2-methylpropanamide]: the pIC50 in assay [1] and in assay [2] was over 8.00 each time.
As for `CS[C@H]1O[C@@H](c2ccc(Cl)c(Cc3ccc(OCC(=O)NC(CO)(CO)CO)cc3)c2)[C@H](O)[C@@H](O)[C@@H]1O` [2-(4-(2-chloro-5-((2S,3R,4R,5S,6R)-3,4,5-trihydroxy-6-(methylthio)tetrahydro-2H-pyran-2-yl)benzyl)phenoxy)-N-(1,3-dihydroxy-2-(hydroxymethyl)propan-2-yl)acetamide], the values for the pIC50 in assay [1] and in assay [2] were over 8.00 and over 7.00, respectively.
Consider `CS[C@H]1O[C@@H](c2ccc(Cl)c(Cc3ccc(OCC(=O)NC(C)(C)C(=O)N4CCN(C)CC4)cc3)c2)[C@H](O)[C@@H](O)[C@@H]1O` [2-(4-(2-chloro-5-((2S,3R,4R,5S,6R)-3,4,5-trihydroxy-6-(methylthio)tetrahydro-2H-pyran-2-yl)benzyl)phenoxy)-N-(2-methyl-1-(4-methylpiperazin-1-yl)-1-oxopropan-2-yl)acetamide], for which the pIC50 in assay [1] is over 8.00; in assay [2], over 7.00.
Regarding `CS[C@H]1O[C@@H](c2ccc(Cl)c(Cc3ccc(OCC(=O)O)cc3)c2)[C@H](O)[C@@H](O)[C@@H]1O` [2-(4-(2-chloro-5-((2S,3R,4R,5S,6R)-3,4,5-trihydroxy-6-(methylthio)tetrahydro-2H-pyran-2-yl)benzyl)phenoxy)acetic acid], the pIC50 in assay [1] was over 7.00; in assay [2], over 6.00.
Regarding `CS[C@H]1O[C@@H](c2ccc(C)c(Cc3ccc(OCC(N)=O)cc3)c2)[C@H](O)[C@@H](O)[C@@H]1O` [2-(4-(2-methyl-5-((2S,3R,4R,5S,6R)-3,4,5-trihydroxy-6-(methylthio)tetrahydro-2H-pyran-2-yl)benzyl)phenoxy)acetamide], the pIC50 was over 8.00 in assay [1] and over 7.00 in assay [2].
In assay [1], `CS[C@H]1O[C@@H](c2ccc(C)c(Cc3ccc(OCC(=O)O)cc3)c2)[C@H](O)[C@@H](O)[C@@H]1O` [2-(4-(2-methyl-5-((2S,3R,4R,5S,6R)-3,4,5-trihydroxy-6-(methylthio)tetrahydro-2H-pyran-2-yl)benzyl)phenoxy)acetic acid] had a pIC50 of over 7.00. Moreover, the “SGLT1 (human SGLT1 IC50)” value in assay [2] is given as “—”.
With `CS[C@H]1O[C@@H](c2ccc(Cl)c(Cc3ccc(OCCCC(=O)NC(C)(C)C(=O)O)cc3)c2)[C@H](O)[C@@H](O)[C@@H]1O` [2-(4-(4-(2-chloro-5-((2S,3R,4R,5S,6R)-3,4,5-trihydroxy-6-(methylthio)tetrahydro-2H-pyran-2-yl)benzyl)phenoxy)butanamido)-2-methylpropanoic acid], the pIC50 in assay [1] is over 7.00. Moreover, the “SGLT1 (human SGLT1 IC50)” value in assay [2] is “—”.
In the case of `CS[C@H]1O[C@@H](c2ccc(C)c(Cc3ccc(CCCc4nnnn4CC(=O)N4CCN(C)CC4)cc3)c2)[C@H](O)[C@@H](O)[C@@H]1O` [2-(5-(3-(4-(2-methyl-5-((2S,3R,4R,5S,6R)-3,4,5-trihydroxy-6-(methylthio)tetrahydro-2H-pyran-2-yl)benzyl)phenyl)propyl)-1H-tetrazol-1-yl)-1-(4-methylpiperazin-1-yl)ethanone], the pIC50 in assay [1] and in assay [2] was over 8.00 each time.
Take `CS[C@H]1O[C@@H](c2ccc(C)c(Cc3ccc(CCCc4nnn(CC(=O)N5CCN(C)CC5)n4)cc3)c2)[C@H](O)[C@@H](O)[C@@H]1O` [2-(5-(3-(4-(2-methyl-5-((2S,3R,4R,5S,6R)-3,4,5-trihydroxy-6-(methylthio)tetrahydro-2H-pyran-2-yl)benzyl)phenyl)propyl)-2H-tetrazol-2-yl)-1-(4-methylpiperazin-1-yl)ethanone]: the pIC50 in assay [1] and in assay [2] was over 8.00 throughout.
In the case of `CS[C@H]1O[C@@H](c2ccc(C)c(Cc3ccc(OCC(=O)NC(C)(C)C(N)=O)cc3)c2)[C@H](O)[C@@H](O)[C@@H]1O` [2-methyl-2-(2-(4-(2-methyl-5-((2S,3R,4R,5S,6R)-3,4,5-trihydroxy-6-(methylthio)tetrahydro-2H-pyran-2-yl)benzyl)phenoxy)acetamido)propanamide], the pIC50 in assay [1] was over 8.00; in assay [2], over 7.00.
The matching figures for `CS[C@H]1O[C@@H](c2ccc(C)c(Cc3ccc(CCCCNC(=O)NC(C)(C)C(N)=O)cc3)c2)[C@H](O)[C@@H](O)[C@@H]1O` [2-methyl-2-(3-(4-(4-(2-methyl-5-((2S,3R,4R,5S,6R)-3,4,5-trihydroxy-6-(methylthio)tetrahydro-2H-pyran-2-yl)benzyl)phenyl)butyl)ureido)propanamide]: over 8.00 and over 8.00.
In the case of `CS[C@H]1O[C@@H](c2ccc(C)c(Cc3ccc(CCCCCNC(=O)NC(C)(C)C(N)=O)cc3)c2)[C@H](O)[C@@H](O)[C@@H]1O` [2-methyl-2-(3-(5-(4-(2-methyl-5-((2S,3R,4R,5S,6R)-3,4,5-trihydroxy-6-(methylthio)tetrahydro-2H-pyran-2-yl)benzyl)phenyl)pentyl)ureido)propanamide], the values for the pIC50 in assay [1] and in assay [2] were over 8.00 and over 7.00, respectively.
Consider `CS[C@H]1O[C@@H](c2ccc(C)c(Cc3ccc(OCCCC(=O)NC(C)(C)C(=O)O)cc3)c2)[C@H](O)[C@@H](O)[C@@H]1O` [2-methyl-2-(4-(4-(2-methyl-5-((2S,3R,4R,5S,6R)-3,4,5-trihydroxy-6-(methylthio)tetrahydro-2H-pyran-2-yl)benzyl)phenoxy)butanamido)propanoic acid], for which the pIC50 in assay [1] and in assay [2] was over 8.00 each time.
As to `CS[C@H]1O[C@@H](c2ccc(C)c(Cc3ccc(CCCC(=O)NC(C)(C)C(=O)O)cc3)c2)[C@H](O)[C@@H](O)[C@@H]1O` [2-methyl-2-(4-(4-(2-methyl-5-((2S,3R,4R,5S,6R)-3,4,5-trihydroxy-6-(methylthio)tetrahydro-2H-pyran-2-yl)benzyl)phenyl)butanamido)propanoic acid], the pIC50 was over 8.00 in assay [1] and over 7.00 in assay [2].
In assay [1], `CS[C@H]1O[C@@H](c2ccc(C)c(Cc3ccc(CCCCC(=O)NC(C)(C)C(=O)O)cc3)c2)[C@H](O)[C@@H](O)[C@@H]1O` [2-methyl-2-(5-(4-(2-methyl-5-((2S,3R,4R,5S,6R)-3,4,5-trihydroxy-6-(methylthio)tetrahydro-2H-pyran-2-yl)benzyl)phenyl)pentanamido)propanoic acid] showed a pIC50 of over 7.00. In assay [2], the “SGLT1 (human SGLT1 IC50)” value is recorded as “—”.
